Entries after “also recorded” stand apart in the source; their conditions may differ. Structures can show the parent of a compound that is named as a salt.
Assays:
[1] = system: male mice; experiment: Acute toxicity by intraperitoneal administration; type: in vivo, mouse; details: i.p.
Procedure: (§1) In the neuropsychopharmacological study which follows, a solution of CRL 41 153 in distilled water (pH 1.5) was administered intraperitoneally in a volume of 20 ml/kg to male mice and 5 ml/kg to male rats.

[2] = system: mice; experiment: Overall behavior and reactivities in mice; type: in vivo, mouse; details: i.p.
Procedure: as §1
(§2) Groups of three animals are observed before and then 0.25 hour, 0.50 hour, 1 hour, 2 hours, 3 hours and 24 hours after the administration of CRL 41 153.

[3] = system: rats; experiment: Overall behavior and reactivities in rats; type: in vivo, rat; details: i.p.
Procedure: as §1, §2

[4] = system: mice; experiment: Interaction with apomorphine in mice; type: in vivo, mouse; details: i.p.
Procedure: Groups of 6 mice receive CRL 41 153 0.5 hour before the subcutaneous injection of 1 or 16 mg/kg of apomorphine.

[5] = system: rats; experiment: Interaction with apomorphine in rats; type: in vivo, rat; details: i.p.
Procedure: CRL 41 153 is administered to groups of 6 rats 0.5 hour before the subcutaneous injection of 0.5 mg/kg of apomorphine.

[6] = system: mice; experiment: Interaction with reserpine; type: in vivo, mouse; details: i.p.
Procedure: Four hours after the intraperitoneal injection of 2.5 mg/kg of reserpine, groups of 6 mice receive CRL 41 153.

[7] = system: mice; experiment: Interaction with oxotremorine; type: in vivo, mouse; details: i.p.
Procedure: CRL 41 153 is administered to groups of 6 mice 0.5 hour before the intraperitoneal injection of 0.5 mg/kg of oxotremorine.

[8] = system: mice; experiment: Intergroup aggressiveness; type: in vivo, mouse; details: i.p.
Procedure: After they have stayed for 3 weeks in the two halves of a cage divided by an opaque partition, groups of 3 mice receive CRL 41 153. Half an hour later, the two groups from the same cage are brought together by removal of the partition, and the number of fights which occur in 10 minutes is noted.

[9] = system: mice; experiment: Motility reduced by habituation to the enclosure; type: in vivo, mouse; details: i.p.
Procedure: After they have stayed In the actimeters for 18 hours, (he mice (6 per dose, 12 control animals) receive CRL 41 153. They are immediately returned to their respective enclosures and, half an hour later, their motility is recorded for 30 minutes.

[10] = system: mice; experiment: Motility reduced by hypoxic aggression; type: in vivo, mouse; details: i.p.
Procedure: Half an hour after they have received CRL 41 153, the mice (10 per dose, 20 control animals) are subjected to acute hypobaric anoxia [pressure reduction of 600 mm Hg (i.e. about 8×10^4 Pa) in 90 seconds; release of vacuum in 45 seconds] and are then placed in an actimeter, where their motility is recorded for 10 minutes.

[11] = system: mice; experiment: Asphyxiant anoxia (gallamine triiodoethylate); type: in vivo, mouse; details: i.p., curarizing agent
Procedure: Groups of 10 mice receive CRL 41 153 half an hour before the intraperitoneal administration of 32 mg/kg of gallamine triiodoethylate (reference curarizing agent).

[12] = system: mice; experiment: Interaction with barbital; type: in vivo, mouse; details: i.p., barbital 220 mg/kg
Procedure: Half an hour after the administration of CRL 41 153, groups of 10 mice receive an intraperitoneal injection of barbital (220 mg/kg).

[13] = system: mice; experiment: Behavioral despair; type: in vivo, mouse; details: forcibly immersed mice, i.p.
Excerpt: Half an hour after they have received CRL 41 153, groups of 6 mice are placed in a beaker filled with water to a height of 6 cm. The total period of immobility between the 2nd and 6th minutes following immersion is noted.

[14] = system: gravid White New Zealand female rabbits; experiment: Teratogenicity in gravid White New Zealand rabbits; type: in vivo, rabbit; details: day 5 to day 18 of gestation; for Affected foetuses, %: normal limit 1.5%
Outline: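 Fetuses harvested by cesarean on gestation day 29 were scored for number and for any malformation (limb blockade, anury, tail or skull defects, exencephaly).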

[15] = pH of solutions in distilled water; type: physicochemical; details: administered solution in distilled water, concentration not given
Procedure: The neuropsychopharmacological study was undertaken according to the procedures described above for CRL 41 153, CRL 41 213 being adminstered intraperitoneally, in solution in distilled water, in a volume of 20 ml/kg to male mice and a volume of 5 ml/kg to male rats, and the pH of the injected solution varying with the concentration of CRL 41 213 according to the data given in Table II below.

[16] = system: CNS; experiment: Neuropsychopharmacological profile as a whole; type: in vivo, mice and rats
Procedure: as §1

[17] = system: CNS; experiment: Complementary tests by oral (gastric) administration; type: in vivo
[18] = system: nigrostriatal dopaminergic system; experiment: Interaction with alpha-methyltyrosine on stereotypies (difference from amphetamine); details: α-methyltyrosine (catecholamine synthesis blocked)

**Q.** With `CC(C)NC(C)C(=O)c1ccc(N)cc1` (stereo not shown) [CRL 41 153, 1-(4-aminophenyl)-2-isopropylaminopropanone dihydrochloride] as the molecule, how does the “LD0 (maximum non-lethal dose)” value [1] read?
**A.** greater than 64 mg/kg

**Q.** And the LD60 [1]?
**A.** about 128 mg/kg

**Q.** What about the Observed symptoms ([2]; 0.5 mg/kg) of the same molecule?
**A.** no particular symptoms

**Q.** And the Observed symptoms ([2]; 2 mg/kg, dihydrochloride)?
**A.** excitation of low intensity 0.5 hour after administration; also recorded: stereotypies for 1 hour; also recorded: an increase in the fear reaction (for 1 hour) and in the reactivity to touch (2 to 3 hours after administration)

**Q.** And the Observed symptoms ([2]; 8 mg/kg, dihydrochloride)?
**A.** excitation for 3 hours; also recorded: an increase in the fear reaction (for 3 hours) and in the reactivity to touch (for 24 hours)

**Q.** And the “Hyperthermia (temperature change)” value ([2]; 32 mg/kg, 0.5 hour after administration)?
**A.** +1.1 °C

**Q.** And the Observed symptoms ([2]; 32 mg/kg, dihydrochloride)?
**A.** excitation and stereotypies for 3 hours; also recorded: an increase in the fear reaction (for 2 hours) and in the reactivity to touch (for 24 hours); also recorded: moderate mydriasis

**Q.** And the Observed symptoms ([3]; 0.25 mg/kg)?
**A.** no particular symptoms

**Q.** What about the Observed symptoms ([3]; 1 mg/kg) of the same molecule?
**A.** mydriasis for 1 hour, reaching its maximum value 1 hour after administration

**Q.** And the “Hyperthermia (maximum temperature change)” value ([3]; 4 mg/kg, 0.5 hour after administration)?
**A.** +1.9 °C

**Q.** What about the Observed symptoms ([3]; 4 mg/kg, dihydrochloride) of the same molecule?
**A.** excitation 0.5 hour after administration and stereotypies for 2 hours; also recorded: hyperthermia for 3 hours; also recorded: mydriasis for 2 hours, reaching its maximum value 0.5 hour after administration

**Q.** What about the Observed symptoms ([3]; 16 mg/kg, dihydrochloride) of the same molecule?
**A.** excitation 0.5 hour after administration; also recorded: stereotypies for 3 hours; also recorded: an increase in the fear reaction for 3 hours; also recorded: mydriasis for 3 hours, at a maximum 0.5 hour after administration

**Q.** What about the “Effect on hypothermia induced by apomorphine” value [4] of the same molecule?
**A.** at doses of 2 mg/kg, 8 mg/kg and 32 mg/kg, CRL 41 153 (which is hyperthermic at the said doses) opposes the hypothermia induced by apomorphine

**Q.** What about the “Effect on righting behavior and stereotypies induced by apomorphine” value [4] of the same molecule?
**A.** without modifying the righting behavior and stereotypy behavior

**Q.** And the “Effect on stereotypies induced by apomorphine” value [5]?
**A.** as from a dose of 0.5 mg/kg, CRL 41 153 potentiates the stereotypies induced by apomorphine

**Q.** What about the “Effect on hypothermia induced by reserpine” value [6] of the same molecule?
**A.** as from a dose of 0.5 mg/kg, CRL 41 153 strongly opposes tbe hypothermia

**Q.** And the “Effect on ptosis induced by reserpine” value [6]?
**A.** as from a dose of 0.5 mg/kg, CRL 41 153 strongly opposes tbe hypothermia and ptosis induced by reserpine

**Q.** What about the “Effect on hypothermic action of oxotremorine” value [7] of the same molecule?
**A.** at doses of 2 mg/kg, 8 mg/kg and 32 mg/kg, CRL 41 153 opposes the hypothermic action of oxotremorine

**Q.** And the “Effect on trembling induced by oxotremorine” value [7]?
**A.** at doses of 8 mg/kg and 32 mg/kg, CRL 41 153 partially antagonizes the trembling induced by oxotremorine

**Q.** What about the “Action on the peripheral cholinergic symptoms” value ([7]; oxotremorine) of the same molecule?
**A.** moderate α-adrenergic stimulant effect

**Q.** What about the “Number of fights / intergroup aggressiveness” value [8] of the same molecule?
**A.** at a dose of 8 mg/kg, CRL 41 153 reduces the number of fights

**Q.** What about the “Motor activity of mice accustomed to their enclosure” value [9] of the same molecule?
**A.** causes a distinct resumption in the motor activity of mice accustomed to their enclosure

**Q.** What about the “Motor recovery of mice after hypobaric hypoxia” value [10] of the same molecule?
**A.** as from a dose of 0.5 mg/kg, CRL 41 153 causes a distinct improvement in the motor recovery

**Q.** What about the “Time taken for convulsions to occur” value [11] of the same molecule?
**A.** at a dose of 32 mg/kg, CRL 41 153 reduces the time taken for convulsions to occur

**Q.** And the “Time taken for death to occur” value [11]?
**A.** does not change the time taken for death to occur

**Q.** And the “Duration of the sleep induced by barbital” value [12]?
**A.** reduces the duration of the sleep induced by barbital (total antagonism is obtained at doses of 8 mg/kg and 32 mg/kg)

**Q.** What about the “Time taken to fall asleep (barbital)” value [12] of the same molecule?
**A.** at doses of 0.5 to 32 mg/kg, CRL 41 153 increases the time taken to fall asleep

**Q.** And the “Period of immobility due to despair” value [13]?
**A.** at doses greater than or equal to 0.5 mg/kg, CRL 41 153 reduces the period of immobility

**Q.** What about the “Affected foetuses, number” value ([14]; 5 mg/kg daily) of the same molecule?
**A.** 0

**Q.** And the “Total foetuses (live)” value ([14]; 5 mg/kg daily)?
**A.** 90

**Q.** What about the “Affected foetuses, %” value ([14]; 5 mg/kg daily) of the same molecule?
**A.** 0%

**Q.** What about the “Affected foetuses, number” value ([14]; 10 mg/kg daily) of the same molecule?
**A.** 1

**Q.** What about the “Total foetuses (live)” value ([14]; 10 mg/kg daily) of the same molecule?
**A.** 88

**Q.** And the “Affected foetuses, %” value ([14]; 10 mg/kg daily)?
**A.** 1.13%

**Q.** What about the “Affected foetuses, number” value ([14]; 50 mg/kg daily) of the same molecule?
**A.** 0

**Q.** What about the “Total foetuses (live)” value ([14]; 50 mg/kg daily) of the same molecule?
**A.** 93

**Q.** What about the “Affected foetuses, %” value ([14]; 50 mg/kg daily) of the same molecule?
**A.** 0%

**Q.** And the pH [15]?
**A.** 1.5

**Q.** And the “Anticonvulsant effects (overall)” value ([16]; conclusion of the tests)?
**A.** anticonvulsant effects: at a high dose

**Q.** And the “Antidepressant effects (overall)” value ([16]; conclusion of the tests)?
**A.** behaves as an antidepressant for the CNS

**Q.** What about the “Stimulant effects (overall)” value ([16]; conclusion of the tests) of the same molecule?
**A.** distinct stimulant component

**Q.** And the “α-adrenergic stimulant effects (overall)” value ([16]; conclusion of the tests)?
**A.** peripheral α-adrenergic stimulant effects

**Q.** What about the “Peripheral α-adrenergic signs (mydriasis, salivation, lacrimation, exophthalmos)” value ([16]; species and dose not stated) of the same molecule?
**A.** mydriasis (with neither piloerection nor salivation)

**Q.** And the “Hypothermia induced by apomorphine” value ([17]; gastric)?
**A.** antagonism of the hypothermia induced by apomorphine

**Q.** What about the Motility ([17]; gastric) of the same molecule?
**A.** hypermotility

**Q.** And the “Sleep induced by barbital” value ([17]; gastric)?
**A.** reduction in the sleep induced by barbital

**Q.** And the “Action on gastric (oral) administration compared with intraperitoneal” value ([17]; gastric vs i.p., dihydrochloride)?
**A.** very active substance; also recorded: same types of action on gastric administration as after intraperitoneal administration

**Q.** And the minimal effective dose ([17]; po, gastric, read-out: Dose as from which antidepressant and stimulant and/or arousing effects appear)?
**A.** ≥ 4 mg/kg

**Q.** What about the “Effect of alpha-methyltyrosine on the stereotypies induced by the substance” value [18] of the same molecule?
**A.** only reduces them
